Square brackets hold non-standard residues; d marks the D form. Peptide text beside a SMILES is read from it. PEG2 = NCCOCCOCCC(=O)O
Legend:
[1] = system: release of TNF-α from LPS-stimulated RAW264.7 cells; test: LPS neutralization: TNF-α release from LPS-stimulated RAW264.7 cells; format: cell-based, mouse
Method: (§1) The well-characterized response of RAW264.7 macrophage cells was used to produce tumor necrosis-factor-alpha (TNF-α) in response to LPS to determine whether the peptides could dampen the release of this cytokine. […] Importantly, pre-treatment (3 hours prior to LPS addition) as well as post-treatment of the RAW264.7 cells (3 hours post LPS addition) with peptide dampened the cytokine release. […] The finding that the novel peptides bind and neutralize the effect of Pseudomonas LPS is of critical importance since this ensures that the novel therapeutic peptide compounds described herein will not only kill the bacteria, but will also neutralize the LPS endotoxin released by the bacteria which plays such an important role in the rapid progression of sepsis.
(§2) BCC01-5RMP (SEQ ID NO:23), BCC002-5RMP (SEQ ID NO:21), and BCC003-5RMP (SEQ ID NO:22) were tested for their ability to bind lipopolysaccharide (LPS) using the limulus amebocyte lysate method (LAL). […] There was no statistical difference in their ability to bind LPS using the LAL technique. The ability of the peptides to neutralize LPS was assessed by determining their ability to attenuate the release of tumor necrosis factor-alpha (TNF-α) from LPS-stimulated RAW264.7 cells (a mouse macrophage cell line). […] No significant differences were observed between the three peptides to neutralize LPS as measured by cytokine release. Peptides based on sequence 120-146 (SEQ ID NOS:28-31) also bind and neutralize Pseudomonas LPS.

[2] = system: Escherichia coli; test: In vitro bactericidal activity against Escherichia coli; format: cell-based; settings: E. coli; inoculum 1×10^6 CFU/ml; 60 to 180 minute incubation
Method: (§3) In vitro bactericidal activity: The three peptide compounds BCC01-5RMP (SEQ ID NO:23), BCC002-5RMP (SEQ ID NO:21), and BCC003-5RMP (SEQ ID NO:22) were assayed for in vitro bactericidal activity against Pseudomonas aeruginosa, Escherichia coli, Salmonella typhimurium, and Acinetobacter baumannii. The starting inoculum for all experiments was 1×10^6 colony forming units (CFU)/ml. The CFU remaining at the end of 60 to 180 minute incubation was determined, and the data plotted as a log reduction in CFU/ml.

[3] = system: P. aeruginosa ATCC 27853; format: cell-based, Pseudomonas aeruginosa; settings: Pseudomonas; inoculum 1×10^6 CFU/ml; 60 to 180 minute incubation
Method: as §3
Table 4 further compares the activity of several other compounds, including the “5R” versions of BCC01, i.e., SEQ ID NO:20 (which comprises SEQ ID NO: 7 with five additional arginines), the “5R” version of BCC002 (i.e., SEQ ID NO:18, which comprises SEQ ID NO: 1 with five additional arginines), and the 5RMP versions of BCC01 (SEQ ID NO: 23) and BCC002 (SEQ ID NO: 21). The data generally indicate the superiority of BCC003-5RMP (SEQ ID NO:22) and BCC002-5RMP (SEQ ID NO: 21) and the superiority of the 5R or 5RMP versions of the peptide over the “AEEP only” peptide against P. aeruginosa.

[4] = system: Salmonella typhimurium; test: In vitro bactericidal activity against Salmonella typhimurium; format: cell-based; settings: inoculum 1×10^6 CFU/ml, 60 to 180 minute incubation
Method: as §3

[5] = system: Pseudomonas LPS; test: LPS binding, Limulus Amebocyte Lysate (LAL) assay; settings: LAL method
Method: as §1, §2

[6] = system: Acinetobacter baumannii; test: In vitro bactericidal activity against Acinetobacter baumannii; format: cell-based; settings: inoculum 1×10^6 CFU/ml, 60 to 180 minute incubation
Method: as §3

[7] = system: human corneal epithelial cell (HCEC); test: HCEC chemotaxis, modified Boyden chemotaxis chamber; format: cell-based; settings: HB-EGF 50 ng/ml; positive control
Method: The effect of buffer control (0.1% BSA in Gey's buffer), heparin binding-epidermal growth factor (HB-EGF, 50 ng/ml), recombinant CAP37 (rCAP37, 250 ng/ml), 120-146QH (10^−12M, 10^−10 M, 10^−8 M, 10^−6M, and 10^−4M,) and 120-146QR (10^−10M, 10^−8M, 10^−6M, and 10^−4M) on HCEC chemotaxis was determined by the modified Boyden chemotaxis chamber method. HCEC chemotaxis was measured in response to HB-EGF, rCAP37, and peptides 120-146QH (SEQ ID NO:29) and 120-146QR (SEQ ID NO:28) after incubation for 3 hours at 37° C. Chemotaxis is expressed as a percent migration. The buffer control (no chemoattractant) is arbitrarily assigned the value of 100% migration. Data are expressed as means±SEM and are calculated from 6 observations for each test point. **P<0.01 by Wilcoxon signed-rank test as compared to controls.
Chemotaxis: Chemotaxis assays were performed using the modified Boyden chemotaxis chamber assay. Peptide 120-146QH was used at 10^−4 M, 10^−6 M, 10^−8 M, 10^−10 M, and 10^−12 M, and peptide 120-146QR was used at 10^−4 M, 10^−6 M, 10^−8M, and 10^−10M.

[8] = system: HCEC monolayers; test: In vitro scratch assay of HCEC monolayers; format: cell-based, human; settings: HB-EGF 250 ng/ml
Method: (A) HCECs were grown to confluency and scratched using a 10 μl pipette tip. Scratched HCEC monolayers were treated with HB-EGF (250 ng/ml) or rCAP37 (25-2000 ng/ml), or were left untreated in basal Keratinocyte Serum Free Medium (KSFM). Wound closure was monitored at 0, 18, 24, and 48 hours utilizing a camera-equipped inverted microscope. The histogram represents data acquired at 48 hours, and the values are the mean±SEM of the percentage of wound closure. The data are representative of at least 4 independent experiments. The percentage of wound closure in treated monolayers was compared to untreated controls by one-way analysis of variance (ANOVA) followed by Dunnett's multiple comparison test, **P<0.01, *P<0.05. (B) Representative images of scratched monolayers treated with buffer control, HB-EGF, and rCAP37 (at 25, 100, and 250 ng/ml) are shown for each time point. Images were taken at 20× objective.
In vitro model of wound healing: An in vitro scratch assay was used in order to determine the ability of rCAP37 to facilitate corneal wound healing. Human corneal epithelial cells were cultured as described above until they reached a confluent monolayer. Each monolayer was scratched using a 10 μl pipette tip to create two perpendicular lines. Monolayers were treated with heparin binding-epidermal growth factor (HB-EGF, 250 ng/ml; Becton Dickinson), rCAP37 (25-2000 ng/ml), or basal KSFM (Gibco). Wound closure was monitored at 0, 18, 24, and 48 hours utilizing a camera-equipped inverted microscope (TE2000-E; Nikon, Melville, N.Y.). Time-lapse images of in vitro wound closure were obtained using a camera-equipped inverted microscope (TE2000-E; Nikon) from […]. HCEC monolayers were treated with HB-EGF, rCAP37, and basal KSFM as described above. The width of each scratch was quantitated using ImageJ software (US National Institutes of Health, Bethesda, Md.). Results are presented as the percentage of wound closure.

[9] = system: mouse corneal epithelium abrasion; test: In vivo model of corneal wound healing; settings: HB-EGF 250 ng/ml at 0 and 16 hours
Method: (§4) The mouse corneal epithelium was removed using the AlgerBrush II (The Alger Company, Inc., Lago Vista, Tex.), and corneal abrasions were treated at 0 hours and 16 hours with peptide 95-122 (10^−5 M), or were left untreated in 0.9% sodium chloride (saline vehicle) Wound healing was monitored at 0, 16, and 24 hours using fluorescein staining and a camera-equipped inverted microscope. Data are represented as the percentage of wound closure at 16 hours and 24 hours and are expressed as means±SEM. The data are representative of at least 6 mice per group. *P<0.05 by unpaired t-test as compared to vehicle (0.9% sodium chloride) treated controls.
as §4, with “II,” for “II (The Alger Company, Inc., Lago Vista, Tex.),”, “0” for “0 hours”, “120-146WH (10^−8 M or 10^−6” for “95-122 (10^−5”, “vehicle control).” for “vehicle)”, “group. ***P<0.001,” for “group.”
(A) The epithelium of the mouse cornea was removed using the AlgerBrush II, and corneal abrasions were treated at 0 and 16 hours with HB-EGF (250 ng/ml), rCAP37 (250 ng/ml), or vehicle control (normal saline). Wound closure was monitored at 0, 16, 24, and 48 hours using fluorescein staining and a camera-equipped inverted microscope. Data are represented as the percentage of wound closure and are expressed as mean±SEM. The data are representative of at least 6 mice per group. The percentage of wound closure in response to treatment was compared to vehicle-treated controls by unpaired t-test, **P<0.01, *P<0.05. (B) Representative images of mouse corneal wounds are shown at 0, 16, 24, and 48 hours following treatment with vehicle, HB-EGF, and CAP37. Black dotted lines indicate the wound edge.
In vivo model of corneal wound healing: The in vivo model of wound healing was carried out using a disposable biopsy punch (2 mm, Miltex, York, Pa.) to demarcate the mouse cornea and a 0.5 mm burr using the AlgerBrush II (The Alger Company, Inc., Lago Vista, Tex.) to remove the corneal epithelium.
In vivo model of wound healing: Mice were anesthetized using ketamine (100 mg/kg; Bionichepharma, LLC., St. Lake Forrest, Ill.) and xylazine ([…]; Rompun; Bayer Corp., Shawnee Mission, Kans.), and the right cornea was wounded as follows. A disposable biopsy punch (2 mm, Miltex, York, Pa.) was used to demarcate the mouse cornea. The corneal epithelium was carefully removed within the 2 mm demarcated area with a 0.5 mm burr using the AlgerBrush II (The Alger Company, Inc., Lago Vista, Tex.). The corneal abrasions were treated at 0 and 16 hours with HB-EGF (250 ng/ml), rCAP37 (250 ng/ml), or vehicle control (0.9% sodium chloride, pH 5.5, Baxter, Deerfield, Ill.). Corneal abrasions were visualized using sterile fluorescein sodium ophthalmic strips USP (FLUORETS®, Chauvin Laboratory, Aubenas, France) dampened with sterile PBS. […] The areas of the open wound were quantitated using ImageJ software (US National Institutes of Health), and the results were reported as the percentage of wound closure.

Row | Molecule | neutralization of LPS: attenuation of TNF-α release [1] | in vitro bactericidal activity, in words [2] | in vitro bactericidal activity, in words [3] | in vitro bactericidal activity, in words [4] | binding of Pseudomonas LPS [5] | in vitro bactericidal activity, in words [6] | migration of HCECs vs buffer control, in words [7] | time to complete closure of scratch wounds ([8]; CAP37 250 ng/ml) [h] | percentage wound closure ([8]; positive control) [%] | corneal wound closure vs buffer control, in words [9]
1 | CC[C@H](C)[C@H](NC(=O)[C@H](CC(C)C)NC(=O)[C@H](C)NC(=O)CNC(=O)CNC(=O)[C@H](CS)NC(=O)[C@H](Cc1ccccc1)NC(=O)[C@H](Cc1c[nH]cn1)NC(=O)[C@H](CCCNC(=N)N)NC(=O)CNC(=O)[C@H](CCC(N)=O)NC(=O)[C@H](CC(N)=O)NC(=O)[C@H](CCCNC(=N)N)NC(=O)[C@H](CCCNC(=N)N)NC(=O)[C@H](CCCNC(=N)N)NC(=O)[C@H](CCCNC(=N)N)NC(=O)CCOCCOCCNC(=O)CCOCCOCCN)C(=O)N[C@@H](Cc1c[nH]cn1)C(=O)N[C@@H](C)C(=O)N[C@@H](CCCNC(=N)N)C(=O)N[C@@H](Cc1ccccc1)C(=O)N[C@H](C(=O)N[C@@H](CCSC)C(=O)N[C@H](C(=O)N[C@@H](C)C(=O)N[C@@H](C)C(=O)N[C@@H](CO)C(=O)N[C@@H](CS)C(=O)N[C@@H](Cc1ccccc1)C(=O)N[C@@H](CCC(N)=O)C(=O)N[C@@H](CCCNC(=N)N)C(=O)O)[C@@H](C)O)C(C)C [BCC01-5RMP] (H-[PEG2][PEG2]RRRRNQGRHFCGGALIHARFVMTAASCFQR-OH; C-terminus assumed) | attenuate the release of TNF-α | strong, but lesser activity | most active | strong, but lesser activity | bound Pseudomonas LPS | most active |  |  |  | 
2 | HB-EGF: heparin binding-epidermal growth factor, used as the positive control (protein, UniProt Q99075 63-148, looked up) Heparin-binding EGF-like …: DLQEADLDLLRVTLSSKPQALATPNKEEHGKRKKKGKGLGKKRDPCLRKYKDFCIHGECKYVKELRAPSCICHPGYHGERCHGLSL |  |  |  |  |  |  | significant increase in migration | ≤ 24 | ~88 | significantly higher compared to the buffer control

From US11884710B2, “Peptide compounds and methods of use in wound healing” (priority 2013, dated 2024)
